{"source": "patent US20240277715A1", "about": "“COMBINATION THERAPIES COMPRISING A METTL3 INHIBITOR AND A FURTHER ANTICANCER AGENT” (Storm Therapeutics Limited, priority 2021, published 2024)", "key": {"[1]": {"system": "EMT6 mouse breast cancer", "test": "Subcutaneous EMT6 breast cancer syngeneic model, anti-tumour efficacy", "assay_type": "in vivo", "conditions": "10 per group", "description": "The in vivo effect of METTL3 inhibition in combination with anti-PD1 immune checkpoint inhibitor was investigated using syngeneic mouse tumour models in immune-competent hosts. Mouse tumour models can be grown in appropriate host strains and are widely used to investigate the effects of therapeutic agents on the immune system and cancer growth. There are a limited range of mouse syngeneic tumour models available, far fewer than human cell lines, and they are widely used in the art to support potential clinical utility of immune stimulatory approaches across multiple indications. We exemplify the potential role of STM3480 and combinations with immune checkpoint inhibitors such as anti-PD-1 antibodies in multiple tumour models including A20 (murine B cell lymphoma), EMT-6 (murine breast cancer) and CT-26 (murine colorectal cancer).\nThe objective of this study is to assess the anti-tumour efficacy of STM3480 in combination with anti-PD1 in subcutaneous EMT6 mouse breast cancer model in female BALB/c mice.\nEMT6 (#ATCC CRL-2755) mouse breast cancer cells were cultured in (Waymouth's MB 752/1 Medium with 2 mM L-glutamine, 85%; foetal bovine serum (non-heat inactivated), 15%) media. […]\nTumours were measured three times a week and tumour volumes estimated using the formula 0.5 (L×W^2) by measuring the tumour in two dimensions using electronic callipers for the duration of the study. […]"}, "[2]": {"system": "MOLM13 AML cell line", "test": "AML cell viability, CellTiter-Glo combination matrix, MOLM13", "assay_type": "cell-based", "conditions": "MOLM13 AML cell line", "procedure": "(§1) The sensitivity of AML cell lines to combinations of METTL3 inhibitor and standards of care was determined as described. Dose response curves of venetoclax were determined either alone or in the presence of different concentrations of METTL3 inhibitor that are known to be active in cells.\n(§2) Synergistic interactions occur when the IC50 value decreases in the presence of METTL3 inhibitor. […] Antagonistic interactions occur when the IC50 value increases in the presence of METTL3 inhibitor.\n(§3) 24 h before cell treatment, homogenize, stain with Trypan blue and count viable cells using CellOMeter Auto T4. Dilute cells in media at 400 000 cells/ml to ensure an exponential growth the day after.\n(§4) On treatment day, homogenize, stain with Trypan blue and count viable cells using CellOMeter Auto T4. Dilute to the proper cell seeding density according to Table 6 in cell media.\n(§5) • Dispense drug (see Table 7) and METTL3 inhibitor in semi-log dose-response matrix and DMSO in 384-well plates using D300e Nanodispenser (Tecan). • 6× compound solution preparation: add 40 μL of cell medium in compound-containing plates and homogenize using the ViaFlo device (Integra) • Dispense 30 μl of cell suspension per well in three replicate 384-well white Ultra-Low-Attachment plates (Sbio) using ViaFlow device (Integra) • Transfer 6 μL of the 6× compound solution in each 30 μL cell suspension-containing plate. • Incubate at 37° C. 5% CO2 for 3 to 5 days.\n(§6) • Add 35 μL CellTiter-Glo (Promega) in wells (vol/vol) using ViaFlo device (Integra). • Incubate at RT 10 min in the dark, with agitation the first minute, and read luminescence on the Ensight device (Perkin Elmer).\n(§7) Raw data were converted to % viability by normalization to DMSO controls. IC50 determination was performed using GraphPad Prism and fitting curves to the standard nonlinear regression four parameter equation (Y=Bottom+(Top-Bottom)/(1+(IC50/X)^HillSlope)) least squares method, and synergy was assessed by comparison of IC50 values of the standard of care in the presence or absence of different concentrations of METTL3 inhibitor (see FIGS. 12 to 19)."}, "[3]": {"system": "Kasumi1 AML cell line", "test": "AML cell viability, CellTiter-Glo combination matrix, Kasumi1", "assay_type": "cell-based", "procedure": "as §1, §2, §3, §4, §5, §6, §7"}, "[4]": {"system": "SKOV3 human ovarian cancer cells", "test": "Tumour killing assay (TKA), SKOV3 spheroid / PBMC co-culture", "assay_type": "cell-based", "conditions": "STM3480 0.05 micromolar, FIG. 1 and 2", "procedure": "This experiment evaluates the effects of human donor Peripheral Blood Mononuclear Cells (PBMCs) to attack and kill fluorescently-labelled tumour cells in a co-culture assay. Briefly, test agents are incubated at different concentrations with SKOV3 human ovarian cancer cells in the presence or absence of human donor PBMCs and tumour growth is monitored continuously by real time imaging of the NucLight Red-labelled SKOV3 cells for several days.\nNucLight Red (Incucyte, Essen Biosciences)-transduced SK-OV-3 (SK-OV-3-NLR) cells were transferred into Ultra-low attachment 96 well plates with spontaneous spheroid formation occurring over 48 hours. Peripheral blood mononuclear cells (PBMC) were isolated from healthy single donor buffy coats by density separation. Prior to co-culture of SK-OV-3-NLR spheroids with PBMC, SK-OV-3-NLR spheroids were treated with 10 ng/ml of interferon gamma (IFNγ). All treatments, including STM3480 and Pembrolizumab, were added at the point of co-culture in a final total volume of 200 μl/per well. Assay plates were transferred into an IncuCyte S3 and images were collected every 2 hours for 7 days. Following experimental completion, an analysis definition was applied to quantify the Total NLR Integrated Intensity present on a per well basis. Changes in spheroid size were quantified by plotting Total NLR Integrated Intensity against time."}, "[5]": {"system": "FLT3-mutant MOLM-14 AML cell line", "test": "AML cell viability, CellTiter-Glo combination matrix, MOLM-14", "assay_type": "cell-based", "procedure": "as §3, §4, §5, §6\nRaw data were converted to % viability by normalization to DMSO controls."}}, "data": [{"molecule": "O=C(NCc1ccc2cc(CNCC3CCC3)[nH]c2c1)c1cc(=O)n2ccccc2n1", "note": "[STM3480, N-[(2-{[(cyclobutylmethyl)amino]methyl}-1H-indol-6-yl)methyl]-4-oxo-4H-pyrido[1,2-a]pyrimidine-2-carboxamide]", "values": [{"measurement": "Mean tumour volume d21", "setting": "[1]; EMT6, female BALB/c mice, STM3480 50 mg/kg p.o., anti PD1 10 mg/kg i.p. BIW, up to 3 weeks", "value": 141, "unit": "mm3"}, {"measurement": "No. mice with complete regressions", "setting": "[1]; EMT6", "value": 1}, {"measurement": "interaction with venetoclax", "setting": "[2]", "value": "synergistic"}, {"measurement": "cell viability with increasing concentrations of METTL3 inhibitor", "setting": "[3]; Kasumi1, combination with daunorubicin", "value": "dose-dependent decrease"}, {"measurement": "interaction with 5′-azacitidine", "setting": "[3]; Kasumi1 AML cell line", "value": "additive"}, {"measurement": "interaction with cytarabine", "setting": "[3]; Kasumi1 AML cell line", "value": "additive"}, {"measurement": "interaction with daunorubicin", "setting": "[3]; Kasumi1 AML cell line", "value": "additive"}, {"measurement": "interaction with venetoclax", "setting": "[3]; Kasumi1 AML cell line", "value": "synergistic"}, {"measurement": "tumour viability (normalized NucLight Red [NLR] fluorescence) against time", "setting": "[4]", "value": "greater anti-tumour effect compared to vehicle"}, {"measurement": "interaction with quizartinib", "setting": "[5]; FLT3-mutant MOLM-14 AML cell line", "value": "additive"}, {"measurement": "cell viability with increasing concentrations of METTL3 inhibitor", "setting": "[5]; MOLM-14, combination with quizartinib", "value": "decreasing viability"}]}]}
